13 molecules from patent US6706740B2, “Fungicidal heterocyclic aromatic amides and their compositions, methods of use and preparation” (Dow AgroSciences LLC, priority 1999, dated 2004) can be followed below.

Experiment [1] deals with Phytophthora infestans—PHYTIN. Put plainly: whole plant or invertebrate. In kind it is in vivo. The note with it: Phytophthora, in Solanum lycopersicum, 24 h, read-out: PHYTIN in vivo 1 Day Protectant.
Experiment [2] deals with Erysiphe graminis—ERYSGT. Put plainly: Powdery Mildew of Wheat, in vivo whole plant, 24 Hour Protectant. The note with it: Erysiphe; 100 ppm spray, wheat, 24 hour protectant; control of fungal infection vs untreated plants; read-out: ERYSGT in vivo 1 Day Protectant.
Experiment [3] relates to Magnaporthe grisea (Pyricularia oryzae—PYRIOR). In words: microbe, parasite or virus in culture. It counts as cell-based. The conditions noted are these: Pyricularia oryzae, read-out: PYRIOR in vitro Growth Inhibition.
In experiment [4] the test system is Mycosphaerella graminicola (Septoria tritici—SEPTTR). Put plainly: In vitro fungal growth inhibition, Mycosphaerella graminicola (SEPTTR). It counts as cell-based. The conditions noted are these: Zymoseptoria tritici, read-out: SEPTTR in vitro Growth Inhibition.
Experiment [5] concerns Ustilago maydis (USTIMA). Put plainly: microbe, parasite or virus in culture. It counts as cell-based. The conditions noted are these: Mycosarcoma maydis, read-out: USTIMA in vitro Growth Inhibition.
For experiment [6], the system named is Rhizoctonia solani (RHIZSO). In words: microbe, parasite or virus in culture. It counts as cell-based. The note with it: Rhizoctonia solani, read-out: RHIZSO in vitro Growth Inhibition.
The subject of experiment [7] is Leptosphaeria nodorum—LEPTNO. Put plainly: Glume Blotch of Wheat, in vivo whole plant, 24 Hour Protectant. The note with it: Leptosphaeria; 100 ppm spray, wheat, 24 hour protectant; control of fungal infection vs untreated plants; read-out: LEPTNO in vivo 1 Day Protectant.
For experiment [8], the system named is Puccinia recondita—PUCCRT. In words: Brown Rust of Wheat, in vivo whole plant, 24 Hour Protectant. The conditions noted are these: 100 ppm spray, wheat, 24 hour protectant, control of fungal infection vs untreated plants; for pest or weed control at 100 ppm: Puccinia, read-out: PUCCRT in vivo 1 Day Protectant.
Experiment [9] relates to Phytophthora infestans (PHYTIN). Put plainly: microbe, parasite or virus in culture. In kind it is cell-based. The note with it: Phytophthora infestans, read-out: PHYTIN in vitro Growth Inhibition.
Experiment [10] relates to Stagonospora nodorum (Leptosphaeria nodorum—LEPTNO). In words: In vitro fungal growth inhibition, Stagonospora nodorum (LEPTNO). The note with it: Leptosphaeria, read-out: LEPTNO in vitro Growth Inhibition. In kind it is cell-based.
The test system of experiment [11] is Septoria tritici—SEPTTR. In words: Leaf Blotch of Wheat, in vivo whole plant, 24 Hour Protectant. The conditions noted are these: Zymoseptoria tritici, 24 h, 100 ppm spray, wheat, 24 hour protectant; control of fungal infection vs untreated plants; read-out: SEPTTR in vivo 1 Day Protectant.

Where two headings read alike, the source gives them in different places.

Usually inhibition stands for how much of the control response was suppressed.

For `COC(=O)C(CO)NC(=O)c1nccc(OC)c1O` (centres unmarked) [Compound 340], the pest or weed control at 100 ppm in [1] is less than 25%; in experiment [2], 25 to 74%; in [7] it was 25 to 74%; in experiment [8] it was less than 25%; in [11], less than 25%. The inhibition at 25 ppm in experiment [3], in experiment [4] (25 ppm in growth medium), in experiment [5], in experiment [6], in experiment [9] and in experiment [10] (25 ppm in growth medium) was less than 80% throughout.
On to `COc1ccnc(C(=O)N[C@@H](CO)C(=O)O[C@@H](C)[C@H](OC(=O)C(C)C)[C@@H](Cc2ccccc2)C(=O)O)c1O` [Compound 341], for which the pest or weed control at 100 ppm is less than 25% in [1]; less than 25% in [2]; less than 25% in experiment [7]; less than 25% in experiment [8]; 25 to 74% in experiment [11]. For the same molecule, the inhibition at 25 ppm in [3], in [4] (25 ppm in growth medium), in experiment [5], in experiment [6], in [9] and in experiment [10] (25 ppm in growth medium) was less than 80% each time.
`COc1ccnc(C(=O)N[C@@H](COCc2ccccc2)C(=O)O[C@@H](C)[C@H](OC(=O)C(C)C)[C@@H](Cc2ccccc2)C(=O)OCc2ccccc2)c1O` [Compound 342]: the pest or weed control at 100 ppm was less than 25% in experiment [1], 25 to 74% in experiment [2], 25 to 74% in experiment [7] and 25 to 74% in experiment [11]. Further, the inhibition at 25 ppm is less than 80% in experiment [3]; less than 80% in [4] (25 ppm in growth medium); greater than 80% in experiment [5]; less than 80% in [6]; less than 80% in [9]; less than 80% in experiment [10] (25 ppm in growth medium). Also, the “PUCCRT in vivo 1 Day Protectant” value in experiment [8] is on record as “+ +”.
As for `COC(=O)C(COC(=O)C(C)c1ccccc1)NC(=O)c1nccc(OC)c1O` (centres unmarked) [Compound 343], the pest or weed control at 100 ppm is less than 25% in experiment [1]; 25 to 74% in experiment [2]; 25 to 74% in [7]; less than 25% in experiment [8]; less than 25% in [11]. Further, the inhibition at 25 ppm in [3], in [4] (25 ppm in growth medium), in experiment [5], in experiment [6], in [9] and in [10] (25 ppm in growth medium) was less than 80% each time.
For `COC(=O)C(COC(=O)CCc1ccccc1)NC(=O)c1nccc(OC)c1O` (centres unmarked) [Compound 344], the pest or weed control at 100 ppm in experiment [1] is less than 25%; in experiment [2], less than 25%; in [7], 25 to 74%; in experiment [8], less than 25%; in [11], 25 to 74%. In addition, the inhibition at 25 ppm was less than 80% in experiment [3]; less than 80% in experiment [4] (25 ppm in growth medium); less than 80% in experiment [5]; less than 80% in experiment [6]; less than 80% in [9]; greater than 80% in experiment [10] (25 ppm in growth medium).
Turning to `COC(=O)C(COC(=O)C(C)Cc1ccccc1)NC(=O)c1nccc(OC)c1O` (centres unmarked) [Compound 345], the pest or weed control at 100 ppm in experiment [1] is less than 25%; in [2] it was less than 25%; in [7], less than 25%; in [8] it was 25 to 74%; in experiment [11] it was less than 25%. Also, the inhibition at 25 ppm in experiment [3], in experiment [4] (25 ppm in growth medium), in experiment [5], in experiment [6], in [9] and in [10] (25 ppm in growth medium) was less than 80% throughout.
Take `COC(=O)C(COC(=O)COCc1ccccc1)NC(=O)c1nccc(OC)c1O` (centres unmarked) [Compound 346]: the pest or weed control at 100 ppm is less than 25% in [1]; less than 25% in experiment [2]; less than 25% in experiment [7]; 25 to 74% in experiment [8]; 25 to 74% in experiment [11]. Besides, the inhibition at 25 ppm in [3] was less than 80%; in experiment [4] (25 ppm in growth medium), less than 80%; in [5] it was less than 80%; in [6], less than 80%; in experiment [9], greater than 80%; in [10] (25 ppm in growth medium) it was less than 80%.
Turning to `COC(=O)C(COC(=O)CC(C)OC(=O)C(C)C)NC(=O)c1nccc(OC)c1O` (centres unmarked) [Compound 347], the pest or weed control at 100 ppm is less than 25% in experiment [1]; less than 25% in [2]; 25 to 74% in experiment [7]; 25 to 74% in [8]; less than 25% in experiment [11]. Further, the inhibition at 25 ppm in [3], in [4] (25 ppm in growth medium), in experiment [5], in [6], in experiment [9] and in experiment [10] (25 ppm in growth medium) was less than 80% each time.
Turning to `COC(=O)C(COC(=O)C(COC(=O)C(C)C)Cc1ccccc1)NC(=O)c1nccc(OC)c1O` (centres unmarked) [Compound 349], the pest or weed control at 100 ppm in [1], in [2], in [7] and in experiment [11] was less than 25% throughout. For the same molecule, the inhibition at 25 ppm in experiment [3], in experiment [4] (25 ppm in growth medium), in experiment [5], in experiment [6], in experiment [9] and in experiment [10] (25 ppm in growth medium) was less than 80% each time. The “PUCCRT in vivo 1 Day Protectant” value in experiment [8] is “+ +”.
In the case of `COc1ccnc(C(=O)NC(COC(=O)C(C)Cc2ccccc2)C(=O)OC(C)C)c1O` (centres unmarked) [Compound 351], the pest or weed control at 100 ppm in experiment [1] is less than 25%; in experiment [2] it was less than 25%; in experiment [7], 25 to 74%; in experiment [11] it was less than 25%. For the same molecule, the inhibition at 25 ppm in experiment [3] is less than 80%; in experiment [4] (25 ppm in growth medium), less than 80%; in experiment [5], greater than 80%; in experiment [6], less than 80%; in [9], less than 80%; in experiment [10] (25 ppm in growth medium), less than 80%. In addition, in experiment [8], the “PUCCRT in vivo 1 Day Protectant” value is given as “+ +”.
In the case of `COc1ccnc(C(=O)NC(COC(=O)CC(C)OC(=O)C(C)C)C(=O)OC(C)C)c1O` (centres unmarked) [Compound 352], the pest or weed control at 100 ppm in experiment [1] was less than 25%; in [2], less than 25%; in experiment [7], less than 25%; in [8], 25 to 74%; in [11], less than 25%. Further, the inhibition at 25 ppm in experiment [3], in experiment [4] (25 ppm in growth medium), in experiment [5], in experiment [6], in experiment [9] and in experiment [10] (25 ppm in growth medium) was less than 80% throughout.
For the molecule `COc1ccnc(C(=O)NC(COC(=O)CC(C)OC(=O)CCc2ccccc2)C(=O)OC(C)C)c1O` (centres unmarked) [Compound 353], the pest or weed control at 100 ppm in experiment [1], in experiment [2], in [7] and in experiment [11] was less than 25% each time. Further, the inhibition at 25 ppm in experiment [3], in experiment [4] (25 ppm in growth medium), in experiment [5], in experiment [6], in [9] and in experiment [10] (25 ppm in growth medium) was less than 80% in each case. Besides, in experiment [8], the “PUCCRT in vivo 1 Day Protectant” value is listed as “+ +”.
Take `COc1ccnc(C(=O)NC(COC(=O)CC(C)O[Si](C)(C)C(C)(C)C)C(=O)OC(C)C)c1O` (centres unmarked) [Compound 354]: the pest or weed control at 100 ppm is less than 25% in experiment [1], 25 to 74% in experiment [2], less than 25% in [7] and less than 25% in experiment [11]. The inhibition at 25 ppm in experiment [3], in experiment [4], in [5], in experiment [6], in experiment [9] and in experiment [10] was less than 80% each time. Further, in [8], the “PUCCRT in vivo 1 Day Protectant” value is on record as “+ +”.
